Tests used:
human mGluR2 receptor = biological target: T1, human mGluR2 receptor (Homo sapiens, UniProt Q14416); assay: [35S]GTPγS binding assay (GTPγS-PAM), membranes from CHO cells transfected with human mGluR2, glutamate at EC25; format: biochemical; settings: positive allosteric modulation in presence of glutamate at EC25 concentration; averages of duplicate values of 11-concentration response curves; error about 0.3 log-units; read-out: GTPgS - hR2 PAM pEC50 (converted)
T1 construct: expressed in transfected cells; host or cells: CHO cells (membrane preparation)
Text: The compounds provided in the present invention are positive allosteric modulators of mGluR2. These compounds appear to potentiate glutamate responses by binding to an allosteric site other than the glutamate binding site. The response of mGluR2 to a concentration of glutamate is increased when compounds of Formula (I) are present. Compounds of Formula (I) are expected to have their effect substantially at mGluR2 by virtue of their ability to enhance the function of the receptor. The behaviour of positive allosteric modulators tested at mGluR2 using the [^35S]GTPγS binding assay method described below and which is suitable for the identification of such compounds, and more particularly the compounds according to Formula (I), are shown in Table 4.
The [^35S]GTPγS binding assay is a functional membrane-based assay used to study G-protein coupled receptor (GPCR) function whereby incorporation of a non-hydrolysable form of GTP, [^35S]GTPγS (guanosine 5′-triphosphate, labelled with […] ^35S), is measured. The G-protein α subunit catalyzes the exchange of guanosine 5′-diphosphate (GDP) by guanosine triphosphate (GTP) and on activation of the GPCR by an agonist, [^35S]GTPγS, becomes incorporated and cannot be cleaved to continue the exchange cycle (Harper (1998) Current Protocols in Pharmacology 2.6.1-10, John Wiley & Sons, Inc.). […] Here we describe the use of the [^35S]GTPγS binding assay using membranes from cells transfected with the human mGluR2 receptor and adapted from Schaffhauser et al ((2003) Molecular Pharmacology 4:798-810) for the detection of the positive allosteric modulation (PAM) properties of the compounds of this invention.
Cho-cells were cultured to pre-confluence and stimulated with 5 mm butyrate for 24 hours, prior to washing in PBS, and then collection by scraping in homogenisation buffer (50 mM Tris-HCl buffer, pH 7.4, 4° C.). Cell lysates were homogenized briefly (15 s) using an ultra-turrax homogenizer. The homogenate was centrifuged at 23 500×g for 10 minutes and the supernatant discarded. The pellet was resuspended in 5 mM Tris-HCl, pH 7.4 and centrifuged again (30 000×g, 20 min, 4° C.). The final pellet was resuspended in 50 mM HEPES, pH 7.4 and stored at −80° C. in appropriate aliquots before use. Protein concentration was determined by the Bradford method (Bio-Rad, USA) with bovine serum albumin as standard.
Measurement of mGluR2 positive allosteric modulatory activity of test compounds in membranes containing human mGluR2 was performed using frozen membranes that were thawed and briefly homogenised prior to pre-incubation in 96-well microplates (15 μg/assay well, 30 minutes, 30° C.) in assay buffer (50 mM HEPES pH 7.4, 100 mM NaCl, 3 mM MgCl2, 50 μM GDP, 10 μg/ml saponin,) with increasing concentrations of positive allosteric modulator (from 0.3 nM to 50 μM) and either a minimal pre-determined concentration of glutamate (PAM assay), or no added glutamate. For the PAM assay, membranes were pre-incubated with glutamate at EC25 concentration, i.e. a concentration that gives 25% of the maximal response glutamate, and is in accordance to published data (Pin et al. (1999) Eur. J. Pharmacol. 375:277˜294). After addition of [^35S]GTPγS (0.1 nM, f.c.) to achieve a total reaction volume of 200 μl, microplates were shaken briefly and further incubated to allow [^35S]GTPγS incorporation on activation (30 minutes, 30° C.). The reaction was stopped by rapid vacuum filtration over glass-fibre filter plates (Unifilter 96-well GF/B filter plates, Perkin-Elmer, Downers Grove, USA) microplate using a 96-well plate cell harvester (Filtermate, Perkin-Elmer, USA), and then by washing three times with 300 μl of ice-cold wash buffer (Na2PO4.2H20 10 mM, NaH2PO4.H20 10 mM, pH=7.4). Filters were then air-dried, and 40 μl of liquid scintillation cocktail (Microscint-O) was added to each well, and membrane-bound [^35S]GTPγS was measured in a 96-well scintillation plate reader (Top-Count, Perkin-Elmer, USA). […]

T1 sequence (Q14416 19-872): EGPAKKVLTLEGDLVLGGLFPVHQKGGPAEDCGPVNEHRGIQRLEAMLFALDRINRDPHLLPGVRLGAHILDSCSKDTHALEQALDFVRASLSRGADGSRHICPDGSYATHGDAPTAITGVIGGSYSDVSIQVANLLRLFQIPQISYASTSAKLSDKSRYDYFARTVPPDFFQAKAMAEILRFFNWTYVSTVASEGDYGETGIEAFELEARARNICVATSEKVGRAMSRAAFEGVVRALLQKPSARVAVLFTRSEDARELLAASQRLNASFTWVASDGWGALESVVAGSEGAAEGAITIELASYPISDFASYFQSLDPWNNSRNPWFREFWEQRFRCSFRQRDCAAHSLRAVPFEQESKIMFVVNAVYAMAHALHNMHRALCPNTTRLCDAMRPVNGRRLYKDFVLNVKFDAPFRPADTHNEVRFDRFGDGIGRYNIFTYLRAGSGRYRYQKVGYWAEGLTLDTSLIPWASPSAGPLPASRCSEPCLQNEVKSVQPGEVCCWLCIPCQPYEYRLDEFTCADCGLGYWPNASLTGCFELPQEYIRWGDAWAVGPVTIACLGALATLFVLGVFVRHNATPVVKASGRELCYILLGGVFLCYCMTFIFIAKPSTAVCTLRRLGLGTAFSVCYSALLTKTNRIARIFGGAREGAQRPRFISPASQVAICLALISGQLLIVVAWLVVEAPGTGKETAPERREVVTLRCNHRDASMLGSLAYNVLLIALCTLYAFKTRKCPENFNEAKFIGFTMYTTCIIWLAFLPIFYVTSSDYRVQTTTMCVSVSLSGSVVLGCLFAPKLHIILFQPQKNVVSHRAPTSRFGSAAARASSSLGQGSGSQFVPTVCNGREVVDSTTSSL

Compound | melting point [°C] | EC50 (human mGluR2 receptor) [nM]
Cc1cc(Oc2ccc(-c3ccn(CC4CC4)c(=O)c3C(F)(F)F)cc2F)ccn1 [Compound 38] | 203.9 | 102
Cc1cc(Oc2ccc(-c3ccn(CC4CC4)c(=O)c3Cl)cc2F)ccn1 [Compound 27] | 176 | 355
Cc1ccc(Oc2ccc(-c3ccn(CC4CC4)c(=O)c3Cl)cc2Cl)cn1 [Compound 20] | 111.8 | 91.2
Cc1cc(Oc2ccc(-c3ccn(CC4CC4)c(=O)c3Cl)cc2Cl)ccn1 [Compound 17] | 120.8 | 117
Cc1ncccc1Oc1ccc(-c2ccn(CC3CC3)c(=O)c2Cl)cc1F [Compound 33] | – | 617
Cc1cc(C)nc(Oc2ccc(-c3ccn(CC4CC4)c(=O)c3Cl)c(F)c2)c1 [Compound 36] | – | 891
Cc1cc(Oc2ccc(-c3ccn(CCC(C)C)c(=O)c3Cl)cc2)ccn1 [Compound 6] | – | 170
Cc1ncccc1Oc1ccc(-c2ccn(CC3CC3)c(=O)c2Cl)cc1 [Compound 24] | 126.2 | 437
Cc1ccc(Oc2ccc(-c3ccn(CC4CC4)c(=O)c3Cl)cc2)c(C)n1 [Compound 14] | 151.8 | 138
Cc1cc(Oc2ccc(-c3ccn(CCC(C)C)c(=O)c3Cl)cc2Cl)ccn1 [Compound 19] | 103.8 | 67.6
Cc1ccc(Oc2ccc(-c3ccn(CCC(C)C)c(=O)c3Cl)cc2Cl)cn1 [Compound 21] | 96.1 | 46.8
CCCCn1ccc(-c2ccc(Oc3ccc(C(C)(C)O)cc3)cc2)c(Cl)c1=O [Compound 37] | – | 39.8
Cc1ccc(Oc2ccc(-c3ccn(CC4CC4)c(=O)c3Cl)cc2F)c(C)n1 [Compound 3, 3-Chloro-1-cyclopropylmethyl-4-[4-(2,6-dimethylpyridin-3-yloxy)-3-fluoro-phenyl]-1H-pyridin-2-one] | 143.4 | 182
Cc1cc(Oc2ccc(-c3ccn(CC4CC4)c(=O)c3Cl)c(F)c2)ccn1 [Compound 28] | 131.8 | 363
CCCCn1ccc(-c2ccc(Oc3ccc(C)nc3)c(Cl)c2)c(Cl)c1=O [Compound 22] | 79.7 | 46.8
Cc1cc(Oc2ccc(-c3ccn(CC4CC4)c(=O)c3Cl)c(F)c2)cc(C)n1 [Compound 32] | 148.6 | 372
Cc1cc(Oc2ccc(-c3ccn(CC4CC4)c(=O)c3Cl)cc2)ccn1 [Compound 13] | – | 513
CCCCn1ccc(-c2ccc(Oc3cccnc3C)c(Cl)c2)c(Cl)c1=O [Compound 15] | – | 60.3
Cc1ncccc1Oc1ccc(-c2ccn(CC3CC3)c(=O)c2Cl)cc1Cl [Compound 23] | – | 126
Cc1cc(Oc2ccc(-c3ccn(CC4CC4)c(=O)c3Cl)cc2F)cc(C)n1 [Compound 31] | 161.6 | 288
CCCCn1ccc(-c2ccc(Oc3ccc(C)nc3C)cc2)c(Cl)c1=O [Compound 16] | – | 67.6
Cc1cc(Oc2ccc(-c3ccn(CC4CC4)c(=O)c3C(F)(F)F)cc2F)cc(C)n1 [Compound 5, 1-Cyclopropylmethyl-4-[4-(2,6-dimethyl-pyridin-4-yloxy)-3-fluoro-phenyl]-3-trifluoromethyl-1H-pyridin-2-one] | 161.8 | 75.9
CCCCn1ccc(-c2ccc(Oc3ccc(C(=O)O)cc3)cc2)c(Cl)c1=O [Compound 4, 4-[4-(1-Butyl-3-chloro-2-oxo-1,2-dihydro-pyridin-4-yl)-phenoxy]-benzoic acid] | 280.3 | 138
Cc1cc(Oc2ccc(-c3ccn(CCC4CC4)c(=O)c3Cl)cc2)ccn1 [Compound 7] | – | 174
CCCCn1ccc(-c2ccc(Oc3ccnc(C)c3)cc2)c(Cl)c1=O [Compound 1, 1-Butyl-3-chloro-4-[4-(2-methylpyridin-4-yloxy)-phenyl]-1H-pyridin-2-one] | – | 251

Other lines, results leading:

melting point [°C] | EC50 (human mGluR2 receptor) [nM] | Compound
– | 67.6 | CCCCn1ccc(-c2ccc(Oc3ccnc(C)c3C)cc2F)c(Cl)c1=O [Compound 11]
– | 100 | CCCCn1ccc(-c2ccc(Oc3ccnc(C)c3)c(Cl)c2)c(Cl)c1=O [Compound 18]
– | 46.8 | CCCCn1ccc(-c2ccc(Oc3ccc(C)nc3C)c(F)c2)c(Cl)c1=O [Compound 30]
120.9 | > 10000 | Cc1ncccc1Oc1ccc(-c2ccn(CC3CC3)c(=O)c2Cl)c(F)c1 [Compound 34]
– | 234 | CCCCn1ccc(-c2ccc(Oc3cc(C)nc(C)c3)c(F)c2)c(Cl)c1=O [Compound 9]
– | 282 | CCCCn1ccc(-c2ccc(Oc3ccnc(C)c3)cc2F)c(Cl)c1=O [Compound 2, 1-Butyl-3-chloro-4-[2-fluoro-4-(2-methylpyridin-4-yloxy)-phenyl]-1H-pyridin-2-one]
– | 224 | CCCCn1ccc(-c2ccc(Oc3cccnc3C)cc2)c(Cl)c1=O [Compound 25]
– | 200 | CCCCn1ccc(-c2ccc(Oc3cc(C)nc(C)c3)cc2F)c(Cl)c1=O [Compound 10]
– | 155 | Cc1cc(Oc2ccc(-c3ccn(CCC4CC4)c(=O)c3Cl)c(F)c2)ccn1 [Compound 26]
108.4 | > 10000 | CCCCn1ccc(-c2ccc(Oc3cccnc3C)cc2F)c(Cl)c1=O [Compound 29]
– | 129 | CCCCn1ccc(-c2ccc(Oc3ccnc(C)c3C)c(F)c2)c(Cl)c1=O [Compound 12]
– | > 10000 | CCCCn1ccc(-c2ccc(Oc3ccc(C)nc3C)cc2F)c(Cl)c1=O [Compound 35]
– | 174 | CCCCn1ccc(-c2ccc(Oc3ccnc(C)c3)c(F)c2)c(Cl)c1=O [Compound 8]

Source: patent publication US8748621B2, “1,3-disubstituted 4-(aryl-X-phenyl)-1H-pyridin-2-ones” (Janssen Pharmaceuticals, Inc., priority 2007, dated 2014)
